Eight molecules from BindingDB's records for doi:10.1016/s0960-894x(98)00709-4 (Dupont Pharmaceuticals, 1999) can be followed below.

pIC50: −log10 of the molar value.

Assay [1] is described as follows: Inhibition of platelet aggregation in heparin treated human platelet rich plasma (PRP).
The nature of assay [2]: Inhibition of platelet aggregation in citreated human platelet rich plasma (PRP).

By pIC50 is commonly meant −log10 of the IC50, conventionally taken in molar units. Low values mean a large IC50, high ones a small IC50. As for `C=CCOP(=O)(NC(CNC(=O)CC1CC(c2ccc(C(=N)N)cc2)=NO1)C(=O)O)OCC=C` (centres undefined) [2-(Bis-allyloxy-phosphorylamino)-3-{2-[3-(4-carbamimidoyl-phenyl)-4,5-dihydro-isoxazol-5-yl]-acetylamino}-propionic acid], the pIC50 in assay [1] was 6.65; in assay [2] it was 6.91. The corresponding values for `CC(C)OP(=O)(NC(CNC(=O)CC1CC(c2ccc(C(=N)N)cc2)=NO1)C(=O)O)OC(C)C` (centres undefined) [3-{2-[3-(4-Carbamimidoyl-phenyl)-4,5-dihydro-isoxazol-5-yl]-acetylamino}-2-(diisopropoxy-phosphorylamino)-propionic acid] are 6.68 and 6.99.

With `[H]/N=C(/N)c1ccc(C2=NO[C@@H](CC(=O)NC[C@H](NC(=O)OCCCC)C(=O)O)C2)cc1`, the pIC50 in assay [1] was 7.18. As for `COP(=O)(NC(CNC(=O)CC1CC(c2ccc(C(=N)N)cc2)=NO1)C(=O)O)OC` (centres undefined) [3-{2-[3-(4-Carbamimidoyl-phenyl)-4,5-dihydro-isoxazol-5-yl]-acetylamino}-2-(dimethoxy-phosphorylamino)-propionic acid], the pIC50 was 6.71 in assay [1] and 6.98 in assay [2]. For `N=C(N)c1ccc(C2=NOC(CC(=O)NCC(NP(=O)(O)O)C(=O)O)C2)cc1` (centres undefined) [3-{2-[3-(4-Carbamimidoyl-phenyl)-4,5-dihydro-isoxazol-5-yl]-acetylamino}-2-phosphonoamino-propionic acid] the same measures were 6.42 and 6.59. Turning to `CCCCOP(=O)(NC(CNC(=O)CC1CC(c2ccc(C(=N)N)cc2)=NO1)C(=O)O)OCCCC` (centres undefined) [3-{2-[3-(4-Carbamimidoyl-phenyl)-4,5-dihydro-isoxazol-5-yl]-acetylamino}-2-(dibutoxy-phosphorylamino)-propionic acid], the figures for the pIC50 in assay [1] and in assay [2] were 6.66 and 6.94, respectively. The molecule `N=C(N)c1ccc(C2=NOC(CC(=O)NCCC(=O)O)C2)cc1` (centres undefined) showed a pIC50 in assay [1] of 6.25. For `CCOP(=O)(NC(CNC(=O)CC1CC(c2ccc(C(=N)N)cc2)=NO1)C(=O)O)OCC` (centres undefined) [3-{2-[3-(4-Carbamimidoyl-phenyl)-4,5-dihydro-isoxazol-5-yl]-acetylamino}-2-(diethoxy-phosphorylamino)-propionic acid], the results for the pIC50 in assay [1] and in assay [2] were 6.62 and 6.93, respectively.
